According to patent US20110183946A1, “Complexes Comprising alpha2-Adrenergic Receptor Agonists and Methods of Providing Neuroprotection or Treating or Inhibiting Progression of Glaucoma” (priority 2007, published 2011):
Values after ≈ are worked out from the molar mass of the structure shown. Read-outs that look alike come from different tables or passages of the source. Values belong to the compound of their own block, whether it stands above or below them.

Columns and labels:
[1] = Solubility of various brimonidine complexes in water at the resulting pH; type: physicochemical; conditions: for pH: resulting pH of the aqueous solubility sample
Protocol: In this experiment, various complexes comprising Brimonidine and counterions of one of the following acids were prepared: pamoic acid, capric acid, sebacic acid, hippuric acid, naproxen, 1-hydroxy-2-naphthoic acid, palmitic acid, and stearic acid. Variations of the procedure described in the following disclosure may be made within the skill of a person of ordinary skill in the art without departing from the scope of the present invention. Brimonidine free base in a preselected solvent was heated to about 60-70° C. The organic acid in another portion of the solvent was added into the heated mixture or was included in the original mixture before heating. The heating of the combined mixture was continued for an additional period, which was not critical. In certain embodiments, an antisolvent was added to the combined mixture, preferably at a lower temperature, to effect a precipitation of the complex of brimonidine and the counterion. It may be advantageous to remove a portion of the solvent and antisolvent to assist the precipitation. In certain other embodiments, the heated combined mixture was cooled down to a lower temperature, such as room temperature (or below) to effect the precipitation of the complex of brimonidine and the counterion. The precipitate was then filtered and dried to yield the final complex.

physchem = assay: physchem
Protocol: Brimonidine and pamoic acid, at a molar ratio of 1:1, were mixed and dispersed in N-methylpyrrolidone (“NMP”). The solution of brimonidine and pamoic acid in NMP was heated while stirring to dissolve brimonidine (the final temperature, typically less than 70° C., was chosen so as not to lose significant amount of solvent). […] The precipitation was allow to proceed; for example, for several hours or overnight. […] Other solvents, known to people skilled in the art, may be used for a compound that provides the counterion to the α2-adrenergic agonist, as appropriate.

[2] = see US Patent Application Publication 2005/0244463 A1; cited from earlier work

solubility ([1]; in water at the resulting pH (pH in column 1 of the same row)): 48 to 200 µg/mL (≈ 164 to 685 µM)
pH [1]: 8.1-8.9
solubility at 11 days (physchem; water, thermodynamic from solid): 215 µg/mL (≈ 736 µM)
Compound: Brc1c(NC2=NCCN2)ccc2nccnc12 [brimonidine free base, 5-bromo-N-(2-imidazolin-2-yl)-6-quinoxalinamine]

pH [1]: 5.3-5.4
Compound: naphthoate

Compound: brimonidine tartrate
Solubility in water (physchem; water, after 11 days on a twist shaker): 41588 µg/mL
Solubility in water [2]: about 34 mg/ml

pH [1]: 6.8
Compound: Brc1c(NC2=NCCN2)ccc2nccnc12.O=C(O)c1ccc2ccccc2c1O [1-hydroxy-2-naphtoate]

pH [1]: 7.2-7.5
Solubility in water (physchem): 207 µg/mL
Compound: Brc1c(NC2=NCCN2)ccc2nccnc12.O=C(O)c1cc2ccccc2c(Cc2c(O)c(C(=O)O)cc3ccccc23)c1O [brimonidine pamoate]
